Source: article PMC4503722, “Novel Phenotypic Outcomes Identified for a Public Collection of Approved Drugs from a Publicly Accessible Panel of Assays” (PLoS ONE, 2015)
Read-outs that look alike come from different tables or passages of the source.

Legend:
Experiment in all cases: cells
[1] = system: endothelial tube formation in co-cultures of ECFCs and ADSCs treated with VEGF; type: cell-based, human
[2] = system: nuclear β-catenin in C2C12 cells; type: cell-based
INS-1E cells = type: cell-based, rat
NCI-H716 cells = type: cell-based, Human
HeLa cells = type: cell-based; conditions: read-out: CellCycle G2/M
DLD-1 = type: cell-based
SW480 = type: cell-based
HCT116 = type: cell-based
[3] = system: HCT116 cells treated with a GSK3β inhibitor; type: cell-based
Colo320 = type: cell-based
HT-29 = type: cell-based
RKO = type: cell-based
SNU-C1 = type: cell-based
[4] = Homo sapiens; read-out: Anti-Angiogenesis
[5] = Rattus norvegicus, INS-1E; read-out: Insulin Secretion
[6] = Homo sapiens, NCI-H716; read-out: GLP 1 Secretion
[7] = Homo sapiens, HeLa, S2 Table, HeLa, 20 = no response at highest concentration
[8] = Homo sapiens, DLD-1, basal, DLD-1, read-out: Basal_Viability ATP DLD-1
[9] = Homo sapiens, SW480, basal, SW480, read-out: Basal_Viability ATP SW480
[10] = Homo sapiens, HCT-116, basal, HCT116, read-out: Basal_Viability ATP HCT116
[11] = Homo sapiens, HCT-116, HCT116 pretreated with GSK3b inhibitor, read-out: GSK3b inh pretreated_Viability ATP HCT116
[12] = Homo sapiens, basal, Colo 320, read-out: Basal_Viability ATP Colo 320
[13] = Homo sapiens, HT-29, read-out: Basal_Viability ATP HT-29
[14] = Homo sapiens, basal, RKO, read-out: Basal_Viability ATP RKO
[15] = Homo sapiens, SNU-C1, basal, SNU-C1, read-out: Basal_Viability ATP SNU-C1
[16] = Homo sapiens, read-out: Anti-Angiogenesis
[17] = Homo sapiens, DLD-1, read-out: Basal_Viability ATP DLD-1
[18] = Homo sapiens, SW480, read-out: Basal_Viability ATP SW480
[19] = Homo sapiens, HCT-116, read-out: Basal_Viability ATP HCT116
[20] = Homo sapiens, HCT-116, read-out: GSK3b inh pretreated_Viability ATP HCT116
[21] = Homo sapiens, COLO 320, read-out: Basal_Viability ATP Colo 320
[22] = Homo sapiens, RKO, read-out: Basal_Viability ATP RKO
[23] = Homo sapiens, SNU-C1, read-out: Basal_Viability ATP SNU-C1
[24] = Mus musculus, C2C12, S2 Table; module primary assay; 20 / 20.1 codes per legend; read-out: Wnt Pathway
[25] = Homo sapiens, basal, HT-29, read-out: Basal_Viability ATP HT-29

Question: For O=C1C(I)=CC(=C(c2cc(I)c(O)c(I)c2)c2ccccc2C(=O)O)C=C1I [Iodotetragnost], which IC50 [1, 4] is on record?
Answer: > 10000 nM

Question: And the EC50 ([2]; Mus musculus, C2C12; read-out: Wnt Pathway)?
Answer: > 20000 nM

Question: What about the EC50 (INS-1E cells; [5]) of the same molecule?
Answer: > 10000 nM

Question: And the EC50 (NCI-H716 cells; [6])?
Answer: > 10000 nM

Question: And the EC50 (HeLa cells; [7])?
Answer: > 10000 nM

Question: And the IC50 (DLD-1; [8])?
Answer: 13.2 nM

Question: What about the IC50 (SW480; [9]) of the same molecule?
Answer: 112 nM

Question: What about the IC50 (HCT116; [10]) of the same molecule?
Answer: 384 nM

Question: What about the IC50 [3, 11] of the same molecule?
Answer: 54 nM

Question: And the IC50 (Colo320; [12])?
Answer: 312 nM

Question: And the IC50 (HT-29; [13])?
Answer: 5730 nM

Question: What about the IC50 (RKO; [14]) of the same molecule?
Answer: 37.3 nM

Question: What about the IC50 (SNU-C1; [15]) of the same molecule?
Answer: 3760 nM

Question: With CO[C@@]12[C@H](COC(N)=O)C3=C(C(=O)C(C)=C(N)C3=O)N1C[C@@H]1N[C@@H]12 [Mitomycin] as the molecule, how does the IC50 [1, 16] read?
Answer: 102 nM

Question: What about the EC50 ([2]; Mus musculus, C2C12, read-out: Wnt Pathway) of the same molecule?
Answer: > 10000 nM

Question: What about the EC50 (INS-1E cells; Rattus norvegicus, INS-1E, read-out: Insulin Secretion) of the same molecule?
Answer: > 10000 nM

Question: And the EC50 (NCI-H716 cells; Homo sapiens, NCI-H716, read-out: GLP 1 Secretion)?
Answer: > 10000 nM

Question: And the EC50 (HeLa cells; Homo sapiens, HeLa)?
Answer: > 10000 nM

Question: What about the IC50 (DLD-1; [17]) of the same molecule?
Answer: 5630 nM

Question: What about the IC50 (SW480; [18]) of the same molecule?
Answer: 12100 nM

Question: What about the IC50 (HCT116; [19]) of the same molecule?
Answer: 13600 nM

Question: And the IC50 [3, 20]?
Answer: > 20000 nM

Question: What about the IC50 (Colo320; [21]) of the same molecule?
Answer: 12600 nM

Question: And the IC50 (HT-29; [13])?
Answer: 2570 nM

Question: What about the IC50 (RKO; [22]) of the same molecule?
Answer: 995 nM

Question: And the IC50 (SNU-C1; [23])?
Answer: 8130 nM

Question: For O=C(NOCC1CC1)c1ccc(F)c(F)c1Nc1ccc(I)cc1Cl [PD-184352, reference compound], which IC50 ([1]; Homo sapiens, read-out: Anti-Angio IC50) is on record?
Answer: 370 nM

Question: What about the IC50 [1, 16] of the same molecule?
Answer: 368 nM

Question: What about the EC50 ([2]; Mus musculus, C2C12, read-out: Wnt pot. EC50) of the same molecule?
Answer: > 10000 nM

Question: What about the EC50 (INS-1E cells; Rattus norvegicus, INS-1E, read-out: Ins. sec. EC50) of the same molecule?
Answer: > 10000 nM

Question: And the EC50 (NCI-H716 cells; Homo sapiens, NCI-H716, read-out: GLP1 sec. EC50)?
Answer: > 10000 nM

Question: What about the EC50 (HeLa cells; Homo sapiens, HeLa) of the same molecule?
Answer: > 10000 nM

Question: What about the IC50 (DLD-1; Homo sapiens, DLD-1, 72 h, read-out: DLD-1 viab. IC50) of the same molecule?
Answer: 2200 nM

Question: And the IC50 (DLD-1; [17])?
Answer: 2160 nM

Question: And the IC50 (SW480; Homo sapiens, SW480, 72 h, read-out: SW480 viab. IC50)?
Answer: 5 nM

Question: What about the IC50 (SW480; [18]) of the same molecule?
Answer: 4.95 nM

Question: What about the IC50 (HCT116; Homo sapiens, HCT-116, 72 h, read-out: HCT-116 viab. IC50) of the same molecule?
Answer: 2 nM

Question: And the IC50 (HCT116; [19])?
Answer: 1.79 nM

Question: And the IC50 ([3]; Homo sapiens, HCT-116, 72 h, read-out: HCT-116 (GSK3β) viab. IC50)?
Answer: 970 nM

Question: What about the IC50 [3, 20] of the same molecule?
Answer: 969 nM

Question: What about the IC50 (Colo320; Homo sapiens, COLO 320, 72 h, read-out: Colo320 viab. IC50) of the same molecule?
Answer: 850 nM

Question: What about the IC50 (Colo320; [21]) of the same molecule?
Answer: 848 nM

Question: What about the IC50 (HT-29; Homo sapiens, HT-29, 72 h, read-out: HT-29 viab. IC50) of the same molecule?
Answer: 26 nM

Question: What about the IC50 (HT-29; [13]) of the same molecule?
Answer: 26.3 nM

Question: And the IC50 (RKO; Homo sapiens, RKO, 72 h, read-out: RKO viab. IC50)?
Answer: 3 nM

Question: And the IC50 (RKO; [22])?
Answer: 3.19 nM

Question: What about the IC50 (SNU-C1; Homo sapiens, SNU-C1, 72 h, read-out: SNU-C1 viab. IC50) of the same molecule?
Answer: 17 nM

Question: And the IC50 (SNU-C1; [23])?
Answer: 17.1 nM

Question: Which IC50 [1, 4] does the source give for OC[C@H]1O[C@@H](n2cnc3c(S)ncnc32)[C@H](O)[C@@H]1O [Thioinosine] here?
Answer: 1420 nM

Question: And the EC50 [2, 24]?
Answer: > 10000 nM

Question: What about the EC50 (INS-1E cells; [5]) of the same molecule?
Answer: > 10000 nM

Question: What about the EC50 (NCI-H716 cells; [6]) of the same molecule?
Answer: > 10000 nM

Question: And the EC50 (HeLa cells; [7])?
Answer: > 10000 nM

Question: What about the IC50 (DLD-1; [8]) of the same molecule?
Answer: 63 nM

Question: What about the IC50 (SW480; [9]) of the same molecule?
Answer: 28.7 nM

Question: And the IC50 (HCT116; [10])?
Answer: 28.6 nM

Question: And the IC50 [3, 11]?
Answer: 504 nM

Question: What about the IC50 (Colo320; [12]) of the same molecule?
Answer: 1060 nM

Question: And the IC50 (HT-29; [25])?
Answer: 118 nM

Question: What about the IC50 (RKO; [14]) of the same molecule?
Answer: 14.4 nM

Question: What about the IC50 (SNU-C1; [15]) of the same molecule?
Answer: 2180 nM

Question: O=C(Nc1ccc(Br)cc1)c1cc(Br)cc(Br)c1O [Tribromsalan] was tested. Which IC50 [1, 4] did it give?
Answer: 1810 nM

Question: And the EC50 [2, 24]?
Answer: > 10000 nM

Question: What about the EC50 (INS-1E cells; [5]) of the same molecule?
Answer: > 10000 nM

Question: What about the EC50 (NCI-H716 cells; [6]) of the same molecule?
Answer: > 10000 nM

Question: What about the EC50 (HeLa cells; [7]) of the same molecule?
Answer: > 10000 nM

Question: What about the IC50 (DLD-1; [8]) of the same molecule?
Answer: 1 nM

Question: What about the IC50 (SW480; [9]) of the same molecule?
Answer: 1 nM

Question: And the IC50 (HCT116; [10])?
Answer: 3 nM

Question: What about the IC50 [3, 11] of the same molecule?
Answer: 1 nM

Question: What about the IC50 (Colo320; [12]) of the same molecule?
Answer: 3 nM

Question: What about the IC50 (HT-29; [25]) of the same molecule?
Answer: 1 nM

Question: What about the IC50 (RKO; [14]) of the same molecule?
Answer: 3 nM

Question: What about the IC50 (SNU-C1; [15]) of the same molecule?
Answer: 1 nM

Question: For Oc1ccc([C@@H]2CNCc3c2ccc(O)c3O)cc1O [Zelandopam], which IC50 ([1]; read-out: Anti-Angiogenesis) is on record?
Answer: > 10000 nM

Question: What about the EC50 ([2]; read-out: Wnt Pathway) of the same molecule?
Answer: > 10000 nM

Question: And the EC50 (INS-1E cells; read-out: Insulin Secretion)?
Answer: > 10000 nM

Question: And the EC50 (NCI-H716 cells; read-out: GLP 1 Secretion)?
Answer: 5950 nM

Question: What about the EC50 (HeLa cells) of the same molecule?
Answer: > 10000 nM

Question: And the IC50 (DLD-1; read-out: Basal_Viability ATP DLD-1)?
Answer: > 20000 nM

Question: What about the IC50 (SW480; read-out: Basal_Viability ATP SW480) of the same molecule?
Answer: > 20000 nM

Question: And the IC50 (HCT116; read-out: Basal_Viability ATP HCT116)?
Answer: > 20000 nM

Question: And the IC50 ([3]; read-out: GSK3b inh pretreated_Viability ATP HCT116)?
Answer: 188 nM

Question: And the IC50 (Colo320; read-out: Basal_Viability ATP Colo 320)?
Answer: 466 nM

Question: What about the IC50 (HT-29; read-out: Basal_Viability ATP HT-29) of the same molecule?
Answer: > 20000 nM

Question: And the IC50 (RKO; read-out: Basal_Viability ATP RKO)?
Answer: 33.2 nM

Question: What about the IC50 (SNU-C1; read-out: Basal_Viability ATP SNU-C1) of the same molecule?
Answer: > 20000 nM

Question: Which IC50 [1, 4] does the source give for CCCCC(CC)CNC(=N)NC(=N)NCCCCCCNC(=N)NC(=N)NCC(CC)CCCC (stereo not shown) [alexidine] here?
Answer: 408 nM

Question: And the EC50 [2, 24]?
Answer: > 10000 nM

Question: What about the EC50 (INS-1E cells; [5]) of the same molecule?
Answer: > 10000 nM

Question: And the EC50 (NCI-H716 cells; [6])?
Answer: > 10000 nM

Question: And the EC50 (HeLa cells; [7])?
Answer: > 10000 nM

Question: What about the IC50 (DLD-1; [8]) of the same molecule?
Answer: 19.7 nM

Question: And the IC50 (SW480; [9])?
Answer: 333 nM

Question: And the IC50 (HCT116; [10])?
Answer: 710 nM

Question: And the IC50 [3, 11]?
Answer: 396 nM

Question: What about the IC50 (Colo320; [12]) of the same molecule?
Answer: 4.1 nM

Question: And the IC50 (HT-29; [25])?
Answer: 30.2 nM

Question: What about the IC50 (RKO; [14]) of the same molecule?
Answer: 223 nM

Question: And the IC50 (SNU-C1; [15])?
Answer: 94.1 nM
